The values below are quoted from earlier work in patent US20080139514A1, “DIPHOSPHONIC ACID PHARMACEUTICAL COMPOSITIONS” (priority 2006, published 2008).

Where two headings read alike, the source gives them in different places.

The conditions of data set [1]: stored at room temperature.

`CCCCCN(C)CCC(O)(P(=O)(O)O)P(=O)(O)O` [ibandronate sodium, ibandronate monosodium monohydrate]: the Solubility in water result (monosodium monohydrate) was “poor”. In addition, the Stability on storage entry in data set [1] was “quite stable”.
For `CCCCCN(C)CCC(O)(P(=O)(O)O)P(=O)(O)O` [Ibandronic acid, 3-(N-methyl-N-pentyl) amino-1-hydroxypropane-1,1-diphosphonic acid], the Solubility in water entry is on record as “freely soluble”. Where the note is “organic solvents”, the “Solubility in organic solvents” value is reported as “practically insoluble”.
